Data set [1] concerns human urothelial cancer cell strain KU7. Put plainly: TUNEL apoptosis detection after RNA transfection. The format is cell-based. The following applies: 72 hours of culture after lipofection, versus control RNA. The procedure: Control RNA (QIAGEN) or ubiquilin 2 siRNA was introduced into human urothelial cancer cell strain KU7 (donated by the School of Urology at the Department of Medicine in Keio University). The ubiquilin 2 siRNA used was siRNA synthesized with 5′-[…]-3′ (SEQ ID NO. 3) of the ubiquilin 2 gene as a Target sequence. The introduction of each RNA was performed by a Lipofection technique with a Lipofectamine™ RNAimax (Life Technologies Japan Ltd.).
After 72 hours of culture of the cells transfected with the RNA, TUNEL positive cells (i.e. cells having undergone apoptosis) were detected under a fluorescence microscope by the TUNEL (Terminal deoxynucleotidyl transferase dUTP nick end labeling) technique, and the percentage of the TUNEL positive cells to the total number of cells was calculated.

For data set [2] the test system is unchanged. Kind of data set: cell survival assay (MTS assay) after addition of thapsigargin. The class given is cell-based. Conditions: thapsigargin 0.1-2.5 μM, 72 hours after addition. The procedure:
To a culture solution prepared by culturing, for 24 hours, cells transfected with RNA in the same manner as in Example 2, thapsigargin (Sigma Corporation), which is an endoplasmic reticulum stress agent, was added so that predetermined concentrations (0.1 μM, 0.5 μM, 1 μM, and 2.5 μM) were achieved.
Seventy-two hours after the addition of thapsigargin, a cell survival assay (MTS assay: with use of a kit from Promega KK) was performed to obtain the number of cells that survived, and the ratio (cell survival rate) of the number of cells that survived in the presence of thapsigargin to the number of cells that survived in the absence of thapsigargin was calculated.

As to “ubiquilin 2 siRNA: siRNA synthesized with 5′-TCCCATAAAGAGACCCTAATA-3′ (SEQ ID NO. 3) of the ubiquilin 2 gene as a Target sequence (siRNA sequence not given here, only target site)”, the “apoptosis (TUNEL positive cells to DAPI positive cells, apoptosis rate)” value in data set [1] is recorded as “apoptosis (death of cells) was induced in the cancer cells”. With `C/C=C(/C)C(=O)O[C@H]1C(C)=C2[C@H]([C@@H]1OC(=O)CCCCCCC)[C@@](C)(OC(C)=O)C[C@H](OC(=O)CCC)[C@@]1(O)[C@H]2OC(=O)[C@@]1(C)O` [thapsigargin], the “cytotoxicity (cell survival rate)” value in data set [2] (KU7 cells transfected with control RNA (ubiquilin 2 gene not knocked down)) was “hardly exhibits cytotoxicity”; in data set [2] (KU7 cells transfected with ubiquilin 2 siRNA (ubiquilin 2 gene knocked down)), “markedly enhanced cytotoxicity”.

The values are drawn from patent US9857375B2, “Cancer marker and utilization thereof” (PUBLIC UNIVERSITY CORPORATION NARA MEDICAL UNIVERSITY, priority 2012, dated 2018).
